For test [1], the target named is Bovine cardiac myosin (Bos taurus (Bovine), UniProt Q9BE39). The test is described as follows: Cardiac muscle myosin II actin-activated ATPase assay (NADH-coupled). The test is classed as biochemical. A digest of the protocol:
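Inhibitory constants came from a quadratic one-to-one binding fit of 16-point dose-responses (highest final 50 uM, triplicate). Rates were NADH-calibrated fluorescence slopes over 30 min at 25° C, with 300 nM bovine cardiac myosin, 10 μM actin and 1 mM ATP coupled through PK/LDH in pH 7.0 MOPS buffer.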

For test [2], the target named is Rabbit skeletal myosin. The test can be described thus: Skeletal muscle myosin II actin-activated ATPase assay. It is filed as biochemical. The note with it: 20 nM skeletal muscle myosin II; read-out: SKMMII KI. A digest of the protocol:
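Inhibitory constants come from a quadratic one-site fit of 16-point, triplicate dose-response data, highest compound concentration 50 uM. Rates are slopes of NADH fluorescence decline over 30 min, coupling ATP turnover of 20 nM rabbit skeletal myosin II with 10 μM actin and 1 mM ATP via PK/LDH, pH 7.0, 25 °C.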

Several values for one entry are separate records, joined by “and”; a condition that tells them apart may be missing. Equal values may be shown once. Read-outs that look alike come from different tables or passages of the source.

Sequence of Bovine cardiac myosin (Q9BE39 whole entry): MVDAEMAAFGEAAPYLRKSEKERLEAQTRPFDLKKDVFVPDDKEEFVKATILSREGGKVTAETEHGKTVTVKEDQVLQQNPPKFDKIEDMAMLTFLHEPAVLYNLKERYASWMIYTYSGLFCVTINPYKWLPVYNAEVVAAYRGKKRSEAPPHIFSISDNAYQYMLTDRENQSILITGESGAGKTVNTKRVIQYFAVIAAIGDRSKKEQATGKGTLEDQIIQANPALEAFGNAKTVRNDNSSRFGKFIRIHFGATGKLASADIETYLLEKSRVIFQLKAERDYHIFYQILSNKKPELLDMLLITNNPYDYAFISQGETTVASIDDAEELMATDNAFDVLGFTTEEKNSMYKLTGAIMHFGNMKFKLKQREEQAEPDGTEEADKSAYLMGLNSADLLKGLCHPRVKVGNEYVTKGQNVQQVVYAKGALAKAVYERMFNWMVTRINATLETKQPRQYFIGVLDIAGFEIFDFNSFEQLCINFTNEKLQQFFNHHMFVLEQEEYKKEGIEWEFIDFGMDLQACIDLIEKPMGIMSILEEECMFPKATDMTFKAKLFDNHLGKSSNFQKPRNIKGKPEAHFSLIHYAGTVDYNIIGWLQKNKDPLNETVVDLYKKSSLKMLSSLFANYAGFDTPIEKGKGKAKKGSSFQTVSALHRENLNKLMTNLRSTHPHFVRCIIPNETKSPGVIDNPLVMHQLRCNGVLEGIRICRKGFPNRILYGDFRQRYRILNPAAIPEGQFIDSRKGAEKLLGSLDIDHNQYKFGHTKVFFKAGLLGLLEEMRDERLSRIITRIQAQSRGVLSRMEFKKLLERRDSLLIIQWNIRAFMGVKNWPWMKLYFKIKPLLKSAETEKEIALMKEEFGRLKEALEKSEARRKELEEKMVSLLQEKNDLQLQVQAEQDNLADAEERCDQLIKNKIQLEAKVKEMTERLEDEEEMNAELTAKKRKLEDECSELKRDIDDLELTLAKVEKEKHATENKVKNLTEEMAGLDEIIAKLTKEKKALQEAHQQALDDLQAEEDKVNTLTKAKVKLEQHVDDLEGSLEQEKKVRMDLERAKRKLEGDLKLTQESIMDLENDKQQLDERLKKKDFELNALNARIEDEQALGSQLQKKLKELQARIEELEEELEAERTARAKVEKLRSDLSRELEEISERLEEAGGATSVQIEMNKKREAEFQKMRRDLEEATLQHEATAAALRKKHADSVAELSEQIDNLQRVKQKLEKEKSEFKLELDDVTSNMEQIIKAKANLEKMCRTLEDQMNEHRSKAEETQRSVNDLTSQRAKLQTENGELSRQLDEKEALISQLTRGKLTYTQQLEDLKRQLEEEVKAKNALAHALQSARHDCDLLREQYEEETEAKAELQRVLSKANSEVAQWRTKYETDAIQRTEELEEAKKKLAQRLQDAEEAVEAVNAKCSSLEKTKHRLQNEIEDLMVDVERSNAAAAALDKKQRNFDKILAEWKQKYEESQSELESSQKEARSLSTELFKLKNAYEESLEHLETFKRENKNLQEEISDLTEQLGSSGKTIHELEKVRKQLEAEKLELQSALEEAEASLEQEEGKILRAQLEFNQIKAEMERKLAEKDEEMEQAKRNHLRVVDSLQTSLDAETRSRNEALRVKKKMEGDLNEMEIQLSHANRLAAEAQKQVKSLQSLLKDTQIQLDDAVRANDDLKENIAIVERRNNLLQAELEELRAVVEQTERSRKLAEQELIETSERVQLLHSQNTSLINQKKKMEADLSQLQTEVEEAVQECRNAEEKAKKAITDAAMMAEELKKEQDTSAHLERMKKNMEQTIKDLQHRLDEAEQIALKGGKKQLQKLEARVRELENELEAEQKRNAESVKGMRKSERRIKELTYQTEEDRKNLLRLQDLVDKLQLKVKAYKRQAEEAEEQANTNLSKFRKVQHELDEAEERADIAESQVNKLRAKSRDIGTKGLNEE
Sequence of Bovine cardiac myosin (P85100 whole entry partner): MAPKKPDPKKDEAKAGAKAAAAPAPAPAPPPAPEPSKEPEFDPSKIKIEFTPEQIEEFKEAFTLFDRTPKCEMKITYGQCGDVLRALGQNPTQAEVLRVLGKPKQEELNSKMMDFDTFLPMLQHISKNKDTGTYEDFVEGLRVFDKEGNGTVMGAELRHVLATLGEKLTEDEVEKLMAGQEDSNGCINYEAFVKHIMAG
Sequence of Bovine cardiac myosin (Q3SZE5 whole entry partner): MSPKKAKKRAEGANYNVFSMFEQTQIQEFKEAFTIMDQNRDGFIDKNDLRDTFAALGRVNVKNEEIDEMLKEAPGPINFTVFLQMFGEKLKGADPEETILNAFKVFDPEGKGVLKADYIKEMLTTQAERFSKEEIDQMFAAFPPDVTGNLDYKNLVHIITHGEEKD

Turning to `Cc1ccc2c(c1)C(=O)[C@]1(O)CCN(c3ccccc3)C1=N2` [Blebbistatin, reference compound], the inhibitory constant (Ki) (commonly a measure of affinity in units of concentration, obtained from inhibition or displacement) in test [1] (300 nM cardiac myosin, 10 μM actin, 25° C., read-out: CMMII KI) is 1.5 µM; in test [1] (cardiac muscle myosin II, read-out: CMMII Ki), 0.67 µM; in test [2] it was 0.36 µM. The “CMMII/NMII Ratio” value in test [1] (cardiac Ki relative to NMII EC50) stood at 0.56. In test [1] (cardiac myosin II Ki over nonmuscle myosin II EC50), the “Ratio CMMII:NMII Ki/EC50” value is 0.789 and 0.8.

These data come from US20250163056A1, “NONMUSCLE MYOSIN II INHIBITORS” (The University of Florida Research Foundation, Inc., priority 2018, published 2025).
